Results: US20250074871A1, “PHENETHYLAMINES AND METHODS OF PREPARATION THEREOF” (priority 2022, published 2025)
Read-outs that look alike come from different tables or passages of the source.

Assays:
Assay type in all cases: cell-based
5-HT2B receptor = target: T1, 5-HT2B receptor (Homo sapiens, UniProt P41595); test: 5-HT2B Gq dissociation BRET functional assay; settings: Table 2; for EC50: at least three replicate trials; for 5-HT2B BRET Eff %: normalized to % 5-HT stimulation
T1 construct: expressed in transfected cells; host or cells: HEK293T

5-HT2A receptor = target: T2, 5-HT2A receptor (Homo sapiens, UniProt P28223); test: 5-HT2A Gq dissociation BRET functional assay; settings: Table 2; for EC50: at least three replicate trials; for 5-HT2A BRET Eff %: normalized to % 5-HT stimulation
T2 construct: expressed in transfected cells; host or cells: HEK293T

5-HT2C receptor = target: T3, 5-HT2C receptor (Homo sapiens, UniProt P28335); test: cell-based; settings: Table 2; for EC50: at least three replicate trials, read-out: 5-HT2C BRET EC50; for 5-HT2C BRET Eff %: normalized to % 5-HT stimulation
T3 construct: expressed in transfected cells; host or cells: HEK293T
T3 sequence (P28335 33-458): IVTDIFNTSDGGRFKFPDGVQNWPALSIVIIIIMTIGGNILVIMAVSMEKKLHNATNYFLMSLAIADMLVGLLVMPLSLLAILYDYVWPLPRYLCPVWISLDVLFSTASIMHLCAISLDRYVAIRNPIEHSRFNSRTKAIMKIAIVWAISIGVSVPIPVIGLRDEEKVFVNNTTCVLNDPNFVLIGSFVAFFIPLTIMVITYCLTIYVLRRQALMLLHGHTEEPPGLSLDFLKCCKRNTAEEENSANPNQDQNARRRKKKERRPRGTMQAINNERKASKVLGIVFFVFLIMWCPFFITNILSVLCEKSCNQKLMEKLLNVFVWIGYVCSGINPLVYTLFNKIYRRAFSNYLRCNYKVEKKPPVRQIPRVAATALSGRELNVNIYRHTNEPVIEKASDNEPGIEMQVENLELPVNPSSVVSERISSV

T2 sequence (P28223 whole entry): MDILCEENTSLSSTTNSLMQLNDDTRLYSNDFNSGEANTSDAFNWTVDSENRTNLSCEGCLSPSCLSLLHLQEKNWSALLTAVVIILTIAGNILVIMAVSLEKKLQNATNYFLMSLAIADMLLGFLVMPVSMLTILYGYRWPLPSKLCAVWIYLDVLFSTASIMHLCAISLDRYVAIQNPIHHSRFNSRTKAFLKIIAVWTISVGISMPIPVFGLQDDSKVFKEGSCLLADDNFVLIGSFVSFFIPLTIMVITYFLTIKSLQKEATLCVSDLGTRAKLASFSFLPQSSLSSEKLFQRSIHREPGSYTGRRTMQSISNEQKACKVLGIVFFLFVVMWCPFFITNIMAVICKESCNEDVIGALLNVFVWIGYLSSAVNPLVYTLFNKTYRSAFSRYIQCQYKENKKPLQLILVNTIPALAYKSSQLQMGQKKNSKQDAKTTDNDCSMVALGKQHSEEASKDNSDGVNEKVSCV
T1 sequence (P41595 whole entry): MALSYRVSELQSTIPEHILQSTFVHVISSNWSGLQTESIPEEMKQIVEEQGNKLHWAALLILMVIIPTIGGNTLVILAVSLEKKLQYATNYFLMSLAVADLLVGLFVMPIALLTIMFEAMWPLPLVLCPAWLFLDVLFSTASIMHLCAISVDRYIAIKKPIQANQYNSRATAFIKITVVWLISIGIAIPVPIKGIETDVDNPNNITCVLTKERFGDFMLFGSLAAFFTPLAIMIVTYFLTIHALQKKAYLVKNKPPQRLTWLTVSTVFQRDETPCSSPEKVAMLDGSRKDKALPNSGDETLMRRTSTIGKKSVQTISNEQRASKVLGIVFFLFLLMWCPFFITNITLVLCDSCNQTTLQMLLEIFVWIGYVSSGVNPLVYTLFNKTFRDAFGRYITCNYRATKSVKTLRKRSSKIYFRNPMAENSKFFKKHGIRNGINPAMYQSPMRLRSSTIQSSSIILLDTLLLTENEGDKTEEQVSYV

| SMILES | EC50 (5-HT2B receptor; read-out: 5-HT2B BRET EC50) | 5-HT2B BRET Eff % (5-HT2B receptor) | EC50 (5-HT2A receptor; read-out: 5-HT2A BRET EC50) | 5-HT2A BRET Eff % (5-HT2A receptor) | EC50 (5-HT2C receptor) | 5-HT2C BRET Eff % (5-HT2C receptor) | 5-HT2B BRET EC50 (nM) / Eff % (5-HT2B receptor) | EC50 (5-HT2A receptor; 5-HT2A BRET EC50 (nM)) | EC50 (5-HT2B receptor; 5-HT2B BRET EC50 (nM)) |
| --- | --- | --- | --- | --- | --- | --- | --- | --- | --- |
| N#Cc1ccc(CCNCc2ccccc2O)cc1 [Cpd #114] | 6490 nM | 11% | 154 nM | 88% | 322 nM | 92% |  |  |  |
| CSc1ccccc1CNC[C@@H]1CCc2cc(C#N)cc(O)c21 [Cpd #142] | 18.5 nM | −20% | 1960 nM | 68% | 17600 nM | 108% |  |  |  |
| COc1ccc(CNCCc2ccc(C#N)cc2OC)cc1 [Cpd #29] |  |  |  | 59% | 924 nM | 75% | Inactive | 3950 nM |  |
| COc1cc(-c2ncco2)ccc1CCNCc1ccccc1Cl [Cpd #102] | 5370 nM | 143% | 2090 nM | 61% | 1640 nM | 101% |  |  |  |
| COc1cc(C#N)ccc1CCNCc1ccccc1F [Cpd #6] |  |  |  | 81% | 2120 nM | 130% | Inactive | 381 nM |  |
| CCCCCc1ccc(CCNCc2ccccc2O)c(OC)c1 [Cpd #125] |  |  |  | 96% | 55.8 nM | 105% | Inactive | 13.5 nM |  |
| CSc1ccccc1CNCCCc1ccc(C#N)cc1O [Cpd #136] | 7330 nM | 49% | 1380 nM | 55% | 412 nM | 43% |  |  |  |
| N#Cc1ccc(CCNCc2ccsc2Cl)c(O)c1 [Cpd #139] |  |  | 1260 nM | 80% | 4670 nM | 91% | Inactive |  |  |
| COc1cc(C#N)ccc1CCNCc1cccc(F)c1 [Cpd #7] |  |  |  | 84% | 800 nM | 126% | Inactive | 133 nM |  |
| COc1ccccc1CNCCc1ccc(F)cc1O [Cpd #130] |  |  |  | 84% | 8.7 nM | 101% | Inactive | 18 nM |  |
| N#Cc1ccc(CCNCc2ccccc2OC(F)(F)F)c(O)c1 [Cpd #124] | 453 nM | 97% | 159 nM | 83% | 21.1 nM | 98% |  |  |  |
| COc1cc2c(cc1CCNCc1ccccc1O)CCO2 [Cpd #141] |  | 59% |  | 96% | 1.6 nM | 107% |  | 2.3 nM | 78.5 nM |
| COc1cc(C#N)ccc1CCNCc1ccc(F)cc1 [Cpd #8] |  |  |  | 52% | 8740 nM | 79% | Inactive | 13100 nM |  |
| Cc1ccc(CCNCc2cccc3c2OCO3)c(O)c1 [Cpd #132] |  |  |  | 70% | 770 nM | 84% | Inactive | 49 nM |  |
| CSc1ccc(CCNCc2ccccc2SC)c(O)c1 [Cpd #121] |  | 89% |  | 94% | 44.1 nM | 110% |  | 3.6 nM | 175 nM |
| N#Cc1cc(O)c(CCNCc2ccccc2O)cc1F [Cpd #129] |  | 62% |  | 95% | 67 nM | 105% |  | 7.8 nM | 249 nM |
| COc1cc(-c2ncccn2)ccc1CCNCc1ccccc1Cl [Cpd #104] |  |  | 4890 nM | 71% | 5690 nM | 106% | Inactive |  |  |
| NCCc1c[nH]c2ccc(O)cc12 [5-hydroxytryptamine (serotonin), 5-hydroxytryptamine, reference compound] |  |  |  | 100% |  |  |  |  |  |
